Results from patent publication US20250101023A1, “HETEROARYL DERIVATIVE AND USES THEREOF” (IUCF-HYU (INDUSTRY-UNIVERSITY COOPERATION FOUNDATION …, priority 2022, published 2025).

Columns and labels:
Assay in all cases: Kinome-wide profiling
Type in all cases: biochemical
Details in all cases: read-out: % Residual Activity (mean)
FAK/PTK2 = FAK/PTK2 (Homo sapiens (Human), UniProt Q05397)
CDK5/p35 = CDK5/p35 (Homo sapiens (Human), UniProt Q00535)
PKAcg = PKAcg (Homo sapiens (Human), UniProt P22612)
EPHB2 = EPHB2 (Homo sapiens (Human), UniProt P29323)
ASK1/MAP3K5 = ASK1/MAP3K5 (Homo sapiens (Human), UniProt Q99683)
MUSK = MUSK (Homo sapiens (Human), UniProt O15146)
CAMKK2 = CAMKK2 (Homo sapiens (Human), UniProt Q96RR4)
JNK2 = JNK2 (Homo sapiens (Human), UniProt P45984)
FLT4/VEGFR3 = FLT4/VEGFR3 (Homo sapiens (Human), UniProt P35916)
CAMK1a = CAMK1a (Homo sapiens (Human), UniProt Q14012)
NEK5 = NEK5 (Homo sapiens (Human), UniProt Q6P3R8)
NEK5, sequence (Q6P3R8 whole entry): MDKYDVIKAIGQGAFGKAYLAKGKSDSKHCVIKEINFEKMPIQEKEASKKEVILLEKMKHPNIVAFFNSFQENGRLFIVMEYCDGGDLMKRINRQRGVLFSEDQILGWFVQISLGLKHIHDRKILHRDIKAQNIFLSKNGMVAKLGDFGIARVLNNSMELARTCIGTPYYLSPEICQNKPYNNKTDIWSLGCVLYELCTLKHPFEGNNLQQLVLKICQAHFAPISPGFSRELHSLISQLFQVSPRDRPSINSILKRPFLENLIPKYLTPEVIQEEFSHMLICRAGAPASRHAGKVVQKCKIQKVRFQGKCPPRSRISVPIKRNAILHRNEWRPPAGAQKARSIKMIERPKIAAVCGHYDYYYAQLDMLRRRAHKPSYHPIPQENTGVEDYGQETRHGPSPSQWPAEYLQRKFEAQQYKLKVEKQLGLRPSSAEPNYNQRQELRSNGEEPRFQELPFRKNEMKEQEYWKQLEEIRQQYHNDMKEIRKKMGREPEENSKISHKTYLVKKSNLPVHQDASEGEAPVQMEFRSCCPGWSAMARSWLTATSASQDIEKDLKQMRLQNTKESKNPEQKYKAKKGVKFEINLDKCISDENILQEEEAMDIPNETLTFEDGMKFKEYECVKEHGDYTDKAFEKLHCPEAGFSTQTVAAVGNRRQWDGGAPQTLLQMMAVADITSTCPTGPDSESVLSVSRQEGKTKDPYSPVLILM

TRKB = TRKB (Homo sapiens (Human), UniProt Q16620)
GCK/MAP4K2 = GCK/MAP4K2 (Homo sapiens (Human), UniProt Q12851)
JAK3 = JAK3 (Homo sapiens (Human), UniProt P52333)
JAK3, sequence (P52333 whole entry): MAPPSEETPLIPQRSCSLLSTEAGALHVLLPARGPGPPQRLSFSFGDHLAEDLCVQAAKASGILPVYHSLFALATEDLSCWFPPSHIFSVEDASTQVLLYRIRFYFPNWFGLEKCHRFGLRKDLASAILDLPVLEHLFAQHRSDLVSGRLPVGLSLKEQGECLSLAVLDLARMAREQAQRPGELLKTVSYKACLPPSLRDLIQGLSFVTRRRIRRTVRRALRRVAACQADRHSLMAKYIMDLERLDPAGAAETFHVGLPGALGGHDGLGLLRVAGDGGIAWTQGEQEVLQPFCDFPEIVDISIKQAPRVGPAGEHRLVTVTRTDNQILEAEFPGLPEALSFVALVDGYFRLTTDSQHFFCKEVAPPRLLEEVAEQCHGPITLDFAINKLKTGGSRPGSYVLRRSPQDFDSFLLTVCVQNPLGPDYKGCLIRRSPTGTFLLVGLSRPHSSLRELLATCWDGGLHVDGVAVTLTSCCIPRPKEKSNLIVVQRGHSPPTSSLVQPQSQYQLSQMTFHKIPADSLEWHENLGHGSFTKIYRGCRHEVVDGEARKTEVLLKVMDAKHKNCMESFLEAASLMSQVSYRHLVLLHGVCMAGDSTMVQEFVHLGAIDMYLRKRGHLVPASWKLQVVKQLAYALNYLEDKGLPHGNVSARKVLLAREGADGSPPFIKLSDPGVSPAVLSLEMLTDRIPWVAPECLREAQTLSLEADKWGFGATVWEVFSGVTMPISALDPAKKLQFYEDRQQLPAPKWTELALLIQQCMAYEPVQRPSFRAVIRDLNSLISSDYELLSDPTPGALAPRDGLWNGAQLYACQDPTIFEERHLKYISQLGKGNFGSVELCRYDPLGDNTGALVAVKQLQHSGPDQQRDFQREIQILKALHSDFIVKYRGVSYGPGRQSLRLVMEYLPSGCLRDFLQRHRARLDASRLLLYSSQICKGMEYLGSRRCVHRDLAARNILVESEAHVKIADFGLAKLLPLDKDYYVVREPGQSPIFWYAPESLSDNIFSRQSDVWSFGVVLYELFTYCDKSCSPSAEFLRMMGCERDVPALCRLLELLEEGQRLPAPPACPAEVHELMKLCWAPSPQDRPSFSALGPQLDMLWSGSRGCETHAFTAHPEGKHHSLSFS

c-Src = c-Src (Homo sapiens (Human), UniProt P12931)
CDK17/cyclin Y (PCTK2) = CDK17/cyclin Y (PCTK2) (Homo sapiens (Human), UniProt Q00537)
CDK17/cyclin Y (PCTK2), sequence (Q00537 whole entry): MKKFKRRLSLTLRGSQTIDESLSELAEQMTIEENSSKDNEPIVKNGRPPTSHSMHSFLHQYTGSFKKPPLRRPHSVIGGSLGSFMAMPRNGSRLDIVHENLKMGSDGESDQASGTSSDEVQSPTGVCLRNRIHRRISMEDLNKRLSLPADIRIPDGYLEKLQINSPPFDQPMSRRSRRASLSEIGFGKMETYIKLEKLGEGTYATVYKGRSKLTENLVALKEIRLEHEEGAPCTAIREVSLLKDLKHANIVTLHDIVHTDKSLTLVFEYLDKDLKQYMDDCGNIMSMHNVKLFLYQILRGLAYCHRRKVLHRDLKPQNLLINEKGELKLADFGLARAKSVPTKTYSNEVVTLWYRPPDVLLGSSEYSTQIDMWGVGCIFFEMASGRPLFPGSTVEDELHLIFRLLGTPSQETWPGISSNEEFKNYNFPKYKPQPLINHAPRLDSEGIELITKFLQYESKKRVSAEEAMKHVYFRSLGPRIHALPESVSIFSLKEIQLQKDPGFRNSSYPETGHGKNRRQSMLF
CDK17/cyclin Y (PCTK2), sequence (Q8ND76 whole entry partner): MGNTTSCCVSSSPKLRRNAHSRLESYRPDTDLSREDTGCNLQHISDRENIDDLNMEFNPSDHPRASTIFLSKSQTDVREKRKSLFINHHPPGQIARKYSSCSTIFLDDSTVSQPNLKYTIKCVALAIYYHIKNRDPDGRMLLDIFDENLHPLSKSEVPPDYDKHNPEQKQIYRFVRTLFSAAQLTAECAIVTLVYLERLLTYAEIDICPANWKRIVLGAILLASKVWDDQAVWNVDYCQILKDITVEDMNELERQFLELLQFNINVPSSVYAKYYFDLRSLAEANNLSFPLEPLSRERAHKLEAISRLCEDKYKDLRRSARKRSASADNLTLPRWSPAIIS

CAMKK1 = CAMKK1 (Homo sapiens (Human), UniProt Q8N5S9)
CAMKK1, sequence (Q8N5S9 whole entry): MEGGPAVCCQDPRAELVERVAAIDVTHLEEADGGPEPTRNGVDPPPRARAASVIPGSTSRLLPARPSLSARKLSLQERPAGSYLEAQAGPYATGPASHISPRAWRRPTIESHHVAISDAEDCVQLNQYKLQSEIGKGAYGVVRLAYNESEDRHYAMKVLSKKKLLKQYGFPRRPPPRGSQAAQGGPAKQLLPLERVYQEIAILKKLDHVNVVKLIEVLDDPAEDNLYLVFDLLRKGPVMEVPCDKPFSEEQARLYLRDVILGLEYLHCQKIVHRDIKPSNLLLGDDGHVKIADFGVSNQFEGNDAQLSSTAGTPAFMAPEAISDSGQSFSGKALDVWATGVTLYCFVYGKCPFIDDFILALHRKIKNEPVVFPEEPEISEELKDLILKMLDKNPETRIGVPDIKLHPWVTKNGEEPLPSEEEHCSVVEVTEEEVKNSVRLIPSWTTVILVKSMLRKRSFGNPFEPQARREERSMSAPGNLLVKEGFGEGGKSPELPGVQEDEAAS

PAK1 = PAK1 (Homo sapiens (Human), UniProt Q13153)
ERK7/MAPK15 = ERK7/MAPK15 (Homo sapiens (Human), UniProt Q8TD08)
CLK3 = CLK3 (Homo sapiens (Human), UniProt P49761)
KDR/VEGFR2 = KDR/VEGFR2 (Homo sapiens (Human), UniProt P35968)
ACK1 = ACK1 (Homo sapiens (Human), UniProt Q07912)
ACK1, sequence (Q07912 whole entry): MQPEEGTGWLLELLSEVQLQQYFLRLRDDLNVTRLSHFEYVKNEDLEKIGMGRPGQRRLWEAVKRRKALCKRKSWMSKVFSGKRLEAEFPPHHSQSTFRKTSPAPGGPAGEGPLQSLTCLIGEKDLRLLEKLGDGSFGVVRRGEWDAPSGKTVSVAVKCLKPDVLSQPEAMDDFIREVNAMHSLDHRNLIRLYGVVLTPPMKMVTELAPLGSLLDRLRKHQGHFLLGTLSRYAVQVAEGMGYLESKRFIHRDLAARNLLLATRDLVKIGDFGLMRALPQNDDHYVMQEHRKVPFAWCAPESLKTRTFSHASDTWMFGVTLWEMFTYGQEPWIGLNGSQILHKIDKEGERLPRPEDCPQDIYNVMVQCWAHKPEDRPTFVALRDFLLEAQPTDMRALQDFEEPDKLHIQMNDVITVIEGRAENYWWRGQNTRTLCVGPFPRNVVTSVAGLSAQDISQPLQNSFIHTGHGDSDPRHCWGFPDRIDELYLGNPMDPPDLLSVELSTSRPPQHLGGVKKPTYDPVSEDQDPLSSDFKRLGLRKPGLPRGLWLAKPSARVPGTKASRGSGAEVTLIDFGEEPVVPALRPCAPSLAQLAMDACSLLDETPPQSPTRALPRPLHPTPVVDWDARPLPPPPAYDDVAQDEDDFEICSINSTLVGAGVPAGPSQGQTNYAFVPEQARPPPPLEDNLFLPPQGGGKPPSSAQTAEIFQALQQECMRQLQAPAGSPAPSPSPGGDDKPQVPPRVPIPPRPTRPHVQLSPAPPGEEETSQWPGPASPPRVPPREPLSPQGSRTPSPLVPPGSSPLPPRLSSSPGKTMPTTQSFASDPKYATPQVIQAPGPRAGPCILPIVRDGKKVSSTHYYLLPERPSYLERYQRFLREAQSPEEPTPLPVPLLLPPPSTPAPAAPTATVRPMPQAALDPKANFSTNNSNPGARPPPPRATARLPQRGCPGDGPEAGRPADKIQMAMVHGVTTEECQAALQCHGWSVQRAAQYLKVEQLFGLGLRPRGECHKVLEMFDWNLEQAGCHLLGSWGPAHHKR

YSK4/MAP3K19 = YSK4/MAP3K19 (Homo sapiens (Human), UniProt Q56UN5)
HIPK2 = HIPK2 (Homo sapiens (Human), UniProt Q9H2X6)
MST3/STK24 = MST3/STK24 (Homo sapiens (Human), UniProt Q9Y6E0)
GLK/MAP4K3 = GLK/MAP4K3 (Homo sapiens (Human), UniProt Q8IVH8)
GRK4 = GRK4 (Homo sapiens (Human), UniProt P32298)
IRAK4 = IRAK4 (Homo sapiens (Human), UniProt Q9NWZ3)
IRAK4, sequence (Q9NWZ3 whole entry): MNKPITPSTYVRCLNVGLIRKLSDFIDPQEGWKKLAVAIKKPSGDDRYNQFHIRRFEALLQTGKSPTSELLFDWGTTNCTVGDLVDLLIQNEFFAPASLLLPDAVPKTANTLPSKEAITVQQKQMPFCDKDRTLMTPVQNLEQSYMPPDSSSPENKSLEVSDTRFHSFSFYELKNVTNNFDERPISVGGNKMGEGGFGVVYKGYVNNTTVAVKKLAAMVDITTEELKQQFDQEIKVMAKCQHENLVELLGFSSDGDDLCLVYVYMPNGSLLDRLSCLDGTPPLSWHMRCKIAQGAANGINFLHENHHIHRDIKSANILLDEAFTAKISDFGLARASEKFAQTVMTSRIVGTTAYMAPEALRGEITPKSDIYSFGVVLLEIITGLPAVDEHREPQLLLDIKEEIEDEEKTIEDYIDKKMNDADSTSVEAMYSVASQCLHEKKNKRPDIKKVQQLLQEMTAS

ERN2/IRE2 = ERN2/IRE2 (Homo sapiens (Human), UniProt Q76MJ5)
CDK16/cyclin Y (PCTAIRE) = CDK16/cyclin Y (PCTAIRE) (Homo sapiens (Human), UniProt Q00536)
TAK1 = TAK1 (Homo sapiens (Human), UniProt O43318)
NEK4 = NEK4 (Homo sapiens (Human), UniProt P51957)
TAOK2/TAO1 = TAOK2/TAO1 (Homo sapiens (Human), UniProt Q9UL54)
PIM2 = PIM2 (Homo sapiens (Human), UniProt Q9P1W9)
PIM2, sequence (Q9P1W9 whole entry): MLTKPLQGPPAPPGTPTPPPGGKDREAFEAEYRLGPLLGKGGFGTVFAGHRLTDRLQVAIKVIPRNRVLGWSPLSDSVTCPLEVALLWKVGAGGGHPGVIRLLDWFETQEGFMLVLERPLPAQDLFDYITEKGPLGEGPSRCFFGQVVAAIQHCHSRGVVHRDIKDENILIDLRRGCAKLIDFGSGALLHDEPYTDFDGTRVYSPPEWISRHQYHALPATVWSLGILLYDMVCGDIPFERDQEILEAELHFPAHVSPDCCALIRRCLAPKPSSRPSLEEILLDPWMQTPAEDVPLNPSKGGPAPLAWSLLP

PKCb2 = PKCb2 (Homo sapiens (Human), UniProt P05771)
PKCa = PKCa (Homo sapiens (Human), UniProt P17252)
TESK2 = TESK2 (Homo sapiens (Human), UniProt Q96S53)

In the case of `CCn1cnc2c(NCc3ccc(-c4ccccn4)nc3)nc(-c3ccc(N)nc3)nc21` [Example 53, N-([2,2′-bipyridin]-5-ylmethyl)-2-(6-aminopyridin-3-yl)-9-ethyl-9H-purin-6-amine], the remaining activity at 10 µM (FAK/PTK2) is reported as 52.5%, the remaining activity at 10 µM (CDK5/p35) is reported as 0.67% and the remaining activity at 10 µM (PKAcg) is reported as 88.4%. For the same compound, the remaining activity at 10 µM (EPHB2) was 2.52%, the remaining activity at 10 µM (ASK1/MAP3K5) was 18.4% and the remaining activity at 10 µM (MUSK) was 10.2%. It also gave a remaining activity at 10 µM (CAMKK2) of 10.6%, a remaining activity at 10 µM (JNK2) of 61.7% and a remaining activity at 10 µM (FLT4/VEGFR3) of 10%. The remaining activity at 10 µM (CAMK1a) was 34%, the remaining activity at 10 µM (NEK5) was 83.8% and the remaining activity at 10 µM (TRKB) was 16.5%. It also gave a remaining activity at 10 µM (GCK/MAP4K2) of 58.4%, a remaining activity at 10 µM (JAK3) of 99.7% and a remaining activity at 10 µM (c-Src) of 60.1%. The remaining activity at 10 µM (CDK17/cyclin Y (PCTK2)) was 7.25%, the remaining activity at 10 µM (CAMKK1) was 18.7% and the remaining activity at 10 µM (PAK1) was 24.5%. For the same compound, the remaining activity at 10 µM (ERK7/MAPK15) was 13.5%, the remaining activity at 10 µM (CLK3) was 94.6% and the remaining activity at 10 µM (KDR/VEGFR2) was 88.6%. For the same compound, the remaining activity at 10 µM (ACK1) was 13.7%, the remaining activity at 10 µM (YSK4/MAP3K19) was 96.8% and the remaining activity at 10 µM (HIPK2) was 81.3%. It also gave a remaining activity at 10 µM (MST3/STK24) of 47%, a remaining activity at 10 µM (GLK/MAP4K3) of 49.6% and a remaining activity at 10 µM (GRK4) of 88.3%. The remaining activity at 10 µM (IRAK4) was 94.8%, the remaining activity at 10 µM (ERN2/IRE2) was 65.4% and the remaining activity at 10 µM (CDK16/cyclin Y (PCTAIRE)) was 17.5%. For the same compound, the remaining activity at 10 µM (TAK1) was 98.2%, the remaining activity at 10 µM (NEK4) was 95.8% and the remaining activity at 10 µM (TAOK2/TAO1) was 23.8%. For the same compound, the remaining activity at 10 µM (PIM2) was 93.8%, the remaining activity at 10 µM (PKCb2) was 39.6% and the remaining activity at 10 µM (PKCa) was 62.4%. The remaining activity at 10 µM (TESK2) was 83.7%.
